Measured values taken from patent US4918064A, “Phenyl glycines for use in reducing neurotoxic injury” (G. D. Searle & Co., priority 1987, dated 1990).

Columns and labels:
KA (kainate) receptor = experiment: [3H]kainate receptor binding assay, synaptic plasma membranes; details: [3H]kainate 0.5 nM, 0-4° C., 60 min
Procedure: Synaptic plasma membranes (SPM) were prepared as previously described [Monahan, J. B. and Michel, J., "Identification and Characterization of an N-methyl-D-aspartate-specific L[^3 H]glutamate Recognition Site in Synaptic Plasma Membranes, J. Neurochem., 48, 1699-1708 (1987)]. The SPM were stored at a concentration of 10-15 mg/ml in 0.32M sucrose, 0.5 mM EDTA, 1 mM MgSO4, 5 mM Tris/SO4, pH 7.4, under liquid nitrogen. The identity and purity of the subcellular fractions were confirmed by both electron microscopy and marker enzymes. Protein concentrations were determined by using a modification of the method of Lowry [Ohnishi, S. T. and Barr, J. K., "A Simplified Method of Quantitating Proteins Using the Biuret and Phenol Reagents", Anal. Biochem., 86, 193-197 (1978)].
The SPM were treated identically for the [^3 H]AMPA (QUIS), [^3 H]kainate and sodium-dependent L-[^3 H]-glumatate binding assays. The SPM were thawed at room temperature, diluted twenty-fold with 50 mM Tris/acetate, pH 7.4, incubated at 37° C. for 30 minutes, and centrifuged at 100,000 g for 15 minutes. The dilution, incubation, and centrifugation was repeated a total of three times.
The basic procedure for the receptor subclass binding assays was similar. This general method involved adding the radioligand (12.5 nM L-[^3 H]glutamate; 0.5 nM [^3 H]kainate or 10 nM [^3 H]AMPA) to the appropriate concentration of the test compound and initiating the assay by the addition of ice cold synaptic plasma membranes (0.2-0.45 mg). The binding assays were performed in 1.5 mL centrifuge tubes with the total volume adjusted to 1.0 mL. .Additions of test compounds were made in 50 mM Tris/acetate, pH 7.4 and incubations were carried out at 0°-4° C. The incubation time for the NMDA and the AMPA binding assays was 10 minutes, for the kainate binding assay 60 minutes and for the sodium-dependent glutamate binding assay 15 minutes. The AMPA binding assay contained 100 mM KSCN and the sodium-dependent glutamate binding assay contained 150 mM sodium acetate in addition to the previously described reagents.
To terminate the incubation, the samples were centrifuged for 15 minutes at 12,000 g and 4° C. in a Beckman Microfuge 12. The supernatant was aspirated and the pelleted membranes dissolved in Beckman BTS-450 tissue solubilizer for a minimum of 6 hours at room temperature. Beckman MP scintillation cocktail containing 7 mL/1 acetic acid was then added and the samples counted on a Beckman LS 5800 or 3801 liquid scintillation counter with automatic corrections for quenching and counting efficiency.
Nonspecific binding was defined as the residual binding in the presence of either excess L-glutamate (0.1-0.4 mM), kainate (0.01 mM), or NMDA (0.5 mM), and was 15-25% of the total binding in the NMDA binding assay, 19-27% in the AMPA binding assay, 20-30% in the kainate binding assay and 10-15% in the sodium-dependent binding assay. Radioligand binding to the synaptic plasma membranes was analyzed using Scatchard and Hill transformations and the Ki values of the compounds determined using logit-log transformations. Calculations and regression analysis were performed using templates developed for Lotus 1, 2, 3 as previously described [Pullan, L. M. "Automated Radioligand Receptor Binding Analysis with Templates for Lotus", Computer Appln. Biosci., 3 131 (1987)]. Binding results are reported in Table II for example compounds of the invention. […]

chick embryo retina = experiment: In Vitro Chick Retina Assay (excitotoxic lesions by NMDA or KA); type: cell-based; details: vs. NMDA 200 μM, 30 min at 37° C.
Source text: [Olney, J. W., Price, M. T., Fuller, T. A., Labruyere, J., Samson, L., Carpenter, M., Mahan, K., "The Anti-Excitotoxic Effects of Certain Anesthetics, Analgesics and Sedative-Hypnotics", Neuroscience Letters, 68, 29-34, (1986)].
Using an approach similar to that earlier described [Reif-Lehrer, L., Bergenthal, J. and Hanninen, L., "Effects of Monosodium Glutamate on Chick Embryo Retina in Culture", Invest. Ophthalmol., 14, 114-12, (1975)], 15-day-old chick embryos were decapitated and their eyes removed and cut into quadrants after excising the cornea and removing the lens, vitreous and iris. The retinal quadrants were then gently separated from the pigment epithelium and incubated for 30 minutes at 37° C. in a standard balanced salt solution (BSS) to which test compounds, either excitatory amino acid agonists or potential antagonists or both, were added in various concentrations. As described elsewhere [Olney, J. W., Price, M. T., Samson, L. and Labruyere, J., "The Role of Specific Ions in Glutamate Neurotoxicity". Neurosci. […]

hippocampal neurons = type: cell-based, Sprague-Dawley rat; details: 1 μM compound
Procedure: Hippocampal neurons were obtained from embryonic day 17 Sprague-Dawley rats. The brains were removed and the hippocampus dissected, placed in ice-cold Leibovitz L-15 medium, carefully stripped of any remaining meninges, and minced into small pieces using scissors. The tissue was rinsed with calcium-magnesium-free Hanks' Balanced Salt Solution and incubated with 0.25% trypsin (Worthington), 40 μg/ml DNAase (Sigma) for 30 minutes at 36° C. Following incubation, the cells were rinsed with 10% serum-containing medium and dissociated by gentle trituration using a reduced bore diameter Pasteur pipet. The cells were plated on a polylysine-coated (0.5 rg/ml, Sigma) 96-well microtiter plates at 30,000 cells/well. Cells were maintained in fluorodeoxyuridine (5 μM) containing chemically defined medium [Bottenstein, J., Sato, G., "Growth of a Rat Neuroblastoma Cell Line in Serum-free Supplemented Medium", Proc. Nat'l. […]
The neuronal survival assay utilized the compound MTT [3-(4,5-dimethylthiazol-2-yl)-2,5-diphenyl tetrazolium bromide], a pale yellow substrate that is cleaved by the mitochondrial enzyme succinate-dehydrogenase to yield a dark blue formazan product. […] The precipitate was then solubilized using 0.08N HCl/isopropanol mixture and the absorbance measured with an ELISA plate reader (Dynatech MR600) using a test wavelength of 570 nm and a reference wavelength of 630 nm. […]

With `NC(C(=O)O)c1ccc(CP(=O)(O)O)cc1` (stereo not drawn) [Example VI, 4-(Phosphonomethyl)phenylglycine] the “Receptor binding, KA (Ki)” value (KA (kainate) receptor) was > 300 µM, the “concentration for full antagonism against NMDA (complete prevention of toxic activity)” value (chick embryo retina) was 50 µM and the “protection of neurons from sodium azide toxicity” value (hippocampal neurons) was “significant protection”.
